Counter-ions that a name gives are not always drawn.
Tests used:
[1] = tested on: eosinophil infiltration; test: Eosinophil accumulation model in the rat (Compound 48/80 injected into pleural cavities); assay type: in vivo, male Sprague Dawley rats; settings: b.i.d. at 0 and 8 hours
Protocol: The compounds of the present invention may also be further characterized in other in vivo assays, such as the eosioophil accumulation model tested in the rat. Fifty μg of Compound 48/80 was injected into the pleural cavities of male Sprague Dawley rats. After 24 hrs, each cavity was washed twice with Hank's Balanced Salt Solution containing 0.2% EDTA. Total cell and eosinophil counts were determined. Test compounds were given intraveneously, orally or subcutaneously, b.i.d. at 0 and 8 hours.

[2] = Pharmacokinetic evaluation in mouse; assay type: in vivo; settings: for AUC (total area under the plasma concentration versus time curve): LC/MS/MS; for clearance / MRT: plasma, 10 mg/kg; for clearance: read-out: CL (apparent plasma clearance); for MRT: read-out: MRT (mean residence time)
[3] = tested on: eosinophil infiltration; test: Murine model of Ascaris-induced bronchial inflammation: eosinophil infiltration into bronchoalveolar lavage fluid; assay type: in vivo; settings: mouse
Protocol: The VLA-4 inhibitors may be further characterized in in vivo assays. One such assay examines the inhibition of eosinophil infiltration into the bronchoalveolar lavage fluid in the mouse (murine) model. In this assay, the animals are treated with cyclophosphamide on day 0. On days 2 and 14, the animals are immunized intraperitoneally with Ascaris suum extract. Seven days later, the animals are treated with various doses of the VLA-4 inhibitor. Shortly after drug administration, the animals are challenged with Ascaris suum extract by instillation into the trachea. Bronchoalveolar lavage of the animal is performed by instilling saline into the lung, 48 hours later. Total cell and eosinophil counts in the lavage are determined.

[4] = Pharmacokinetic evaluation in rat; assay type: in vivo; settings: for AUC (total area under the plasma concentration versus time curve): LC/MS/MS; for clearance / MRT: plasma, 10 mg/kg; for clearance: read-out: CL (apparent plasma clearance); for MRT: read-out: MRT (mean residence time)
[5] = Mouse bio-assay: serum concentration after oral dosing, determined by direct binding assay of diluted serum; settings: oral, 10 mg/kg, 15 minutes post-administration
Protocol: (§1) A compound was dissolved or suspended with an appropriate solvent at 1 mg/mL. Female Balb/c mice (7–9 weeks old) were given the compound orally. Blood samples were collected from the postcaval vein of the anesthetized mice after fifteen minutes. Serum was prepared and stored at −20° C. Serum concentration of the compound was determined from inhibitory activities of the diluted serum by a direct binding assay using VLA-4-expressing cells and VCAM-IgG fusion protein. Serum concentration determined by this method correlated well with the concentration determined by LC/MS/MS methodologies.

[6] = in vivo; settings: female, Balb/c, mouse, po, 10 mg/kg
Protocol: as §1

[7] = in vivo; settings: monkey, 2 mg/kg
[8] = Pharmacokinetic evaluation in monkey, single intravenous dosage; settings: single intravenous dosage (2 mg/kg), LC/MS/MS
[9] = tested on: VLA-4-expressing cells; settings: Wang et al. 1995; cited from earlier work
[10] = tested on: accelerated coronary arteriopathy; settings: Molossi et al. 1995; cited from earlier work
[11] = tested on: VLA-4-mediated lymphocyte adherence; settings: Molossi et al. 1995; cited from earlier work
[12] = 10 mg/kg (p.o.), line of AUC 0–6 hr
[13] = 10 mg/kg (p.o.), line of AUC 0–∞
[14] = iv, 10 mg/kg (i.v.), line of AUC 0–6 hr
[15] = iv, 10 mg/kg (i.v.), line of AUC 0–∞
[16] = po, 10 mg/kg (p.o.), line of AUC 0–6 hr
[17] = po, 10 mg/kg (p.o.), line of AUC 0–∞

Cc1ccccc1NC(=O)Nc1ccc(CC(=O)N2C[C@@H](F)C[C@H]2COc2ccc(C(=O)O)cc2)cc1Cl [Compound 90, 4-[1-[3-chloro-4-[N′-(2-methylphenyl)ureido]phenylacetyl]-(4S)-fluoro-(2S)-pyrrolidinyl]methoxybenzoic acid]
% Inhibition of Eosinophil Infiltration ([1]; 3 mg/kg 2 days, i.v.): 25.4%
% Inhibition of Eosinophil Infiltration ([1]; 10 mg/kg 2 days, i.v.): 46.7%
% Inhibition of Eosinophil Infiltration ([1]; 30 mg/kg 2 days, i.v.): 83.7%
% Inhibition of Eosinophil Infiltration ([1]; 50 mg/kg 2 days, p.o.): 50.5%
AUC (total area under the plasma concentration versus time curve) ([2]; 10 mg/kg (i.v.), 0–6 hr): 8995 (0–6 hr) ng · h/mL
AUC (total area under the plasma concentration versus time curve) ([2]; 10 mg/kg (i.v.), 0–∞): 9219 (0–∞) ng · h/mL
AUC (total area under the plasma concentration versus time curve) ([2]; 10 mg/kg (p.o.), 0–6 hr): 2540 (0–6 hr) ng · h/mL
AUC (total area under the plasma concentration versus time curve) ([2]; 10 mg/kg (p.o.), 0–∞): 2950 (0–∞) ng · h/mL
CL (apparent plasma clearance) [2, 12]: 65.62 mL/min/kg
CL (apparent plasma clearance) [2, 13]: 56.50 mL/min/kg
clearance [2, 14]: 18.5 mL/min/kg
MRT [2, 14]: 0.5 h
clearance [2, 15]: 18.1 mL/min/kg
MRT [2, 15]: 0.7 h
MRT [2, 16]: 1.2 h
MRT [2, 17]: 2.5 h
% Inhibition of Eosinophil Infiltration ([3]; 10 mg/kg t.i.d. × 2 days, p.o.): 18.1%
% Inhibition of Eosinophil Infiltration ([3]; 30 mg/kg b.i.d. × 2 days, i.v.): 47.3%
% Inhibition of Eosinophil Infiltration ([3]; 30 mg/kg t.i.d. × 2 days, p.o.): 39.1%
% Inhibition of Eosinophil Infiltration ([3]; 50 mg/kg t.i.d. × 2 days, p.o.): 45.9%
AUC (total area under the plasma concentration versus time curve) ([4]; 10 mg/kg (i.v.), 0–6 hr): 31915 (0–6 hr) ng · h/mL
AUC (total area under the plasma concentration versus time curve) ([4]; 10 mg/kg (i.v.), 0–∞): 33488 (0–∞) ng · h/mL
AUC (total area under the plasma concentration versus time curve) ([4]; 10 mg/kg (p.o.), 0–6 hr): 11454 (0–6 hr) ng · h/mL
AUC (total area under the plasma concentration versus time curve) ([4]; 10 mg/kg (p.o.), 0–∞): 19968 (0–∞) ng · h/mL
CL (apparent plasma clearance) [4, 12]: 17.85 mL/min/kg
CL (apparent plasma clearance) [4, 13]: 9.99 mL/min/kg
clearance [4, 14]: 5.23 mL/min/kg
MRT [4, 14]: 0.8 h
clearance [4, 15]: 4.98 mL/min/kg
MRT [4, 15]: 1.1 h
MRT [4, 16]: 1.7 h
MRT [4, 17]: 8.8 h
Serum Concentration [5]: 3659 ng/mL

COC(=O)c1ccc(OC[C@@H]2C[C@@H](N(C)C)CN2C(=O)Cc2ccc(NC(=O)Nc3ccccc3C)c(OC)c2)cc1 [Compound 156, methyl 4-[trans-4-dimethylamino-1-[3-methoxy-4-[N′-(2-methylphenyl)ureido]phenylacetyl]-(2S)-pyrrolidinyl]methoxybenzoate HCl salt]
concentration at 15 min [6]: 285 ng/mL

COc1cc(CC(=O)N2CC(O)C(O)C2C(=O)N2CCN(CC(=O)O)CC2)ccc1NC(=O)Nc1ccccc1C (stereo not drawn) [Compound 195]
clearance ([7]; plasma, iv): 4 mL/min/kg
concentration at 5 min ([7]; serum, intravenous): 65400 ng/mL
concentration at 30 min ([7]; serum, intravenous): 3900 ng/mL
concentration at 1 hr ([7]; serum, intravenous): 2220 ng/mL
concentration at 2 hr ([7]; serum, intravenous): 772 ng/mL
concentration at 4 hr ([7]; serum, intravenous): 194 ng/mL
concentration at 8 hr ([7]; serum, intravenous): 28 ng/mL
AUC (total area under the plasma concentration versus time curve) [8]: 8405 ng·h/mL

CQIDSPC [Synthetic VCAM-1 peptide]
adhesion of VLA-4-expressing cells to purified VCAM-1 [9]: inhibit the adhesion

phenylacetic acid-Leu-Asp-Phe-d-Pro-amide
accelerated coronary arteriopathy in rabbit cardiac allografts [10]: reduced
VLA-4-mediated lymphocyte adherence in vitro [11]: inhibited

Source: US7179819B2, “VLA-4 inhibitor compounds” (Daiichi Pharmaceutical Co., Ltd., priority 1999, dated 2007)
